Measurements from patent US20230227466A1, “SUBSTITUTED THIENOPYRIMIDINES THAT INTERACT WITH THE RAS SUPERFAMILY FOR THE TREATMENT OF CANCERS, INFLAMMATORY DISEASES, RASOPATHIES, AND FIBROTIC DISEASE” (SHY Therapeutics, LLC, priority 2020, published 2023).
Like-named read-outs stand apart in the source and are kept apart here.

Columns and labels:
Test in all cases: Ras GTP binding domain inhibition assay (labeled-GTP competition, cell-free)
Rac-1 = Rac-1 (Homo sapiens, UniProt P63000); set-up: made in house
Method in brief: (§1)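 His-tagged protein immobilized on Ni-coated wells overnight at 4 °C. Compounds (20 μM single point or serial dilution for IC50) incubated 3 h at RT, ± Sos (residues 556-1049, 10-30 μg/mL) during the final hour. Cy3- or Cy5-GTP (100 nM) then added for 45 min; bound label read by fluorescence after washing.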

KRas wild type = KRas wild type (Homo sapiens, UniProt P01116); set-up: made in house
Method in brief: as §1

Rho-A = Rho-A (Homo sapiens, UniProt P61586); set-up: made in house
Method in brief: as §1

KRas G12C mutant = target: T1, KRas G12C mutant (Homo sapiens, UniProt P01116, G12C)
T1 construct: made in house
Method in brief: as §1

KRas Q61H mutant = target: T2, KRas Q61H mutant (Homo sapiens, UniProt P01116, Q61H)
T2 construct: made in house
Method in brief: as §1

KRas G12D mutant = target: T3, KRas G12D mutant (Homo sapiens, UniProt P01116, G12D)
T3 construct: made in house
Method in brief: as §1

[1] = with SOS, read-out: Rac-1 + SOS: % inh.
[2] = without SOS, read-out: Rac-1: % inh.
[3] = with SOS, read-out: KRas wild type + SOS: % inh.
[4] = without SOS, read-out: KRas wild type: % inh.
[5] = with SOS, read-out: Rho-A + SOS: % inh.
[6] = without SOS, read-out: Rho-A: % inh.
[7] = with SOS, read-out: KRas G12C mutant + SOS: % inh.
[8] = without SOS, read-out: KRas G12C mutant: % inh.
[9] = with SOS, read-out: KRas Q61H mutant + SOS: % inh.
[10] = without SOS, read-out: KRas Q61H mutant: % inh.
[11] = with SOS, read-out: KRas G12D mutant + SOS: % inh.
[12] = without SOS, read-out: KRas G12D mutant: % inh.

inhibition at 20 µM (Rac-1; [1]) [%] | inhibition at 20 µM (Rac-1; [2]) [%] | inhibition at 20 µM (KRas wild type; [3]) [%] | inhibition at 20 µM (KRas wild type; [4]) [%] | inhibition at 20 µM (Rho-A; [5]) [%] | inhibition at 20 µM (Rho-A; [6]) [%] | inhibition at 20 µM (KRas G12C mutant; [7]) [%] | inhibition at 20 µM (KRas G12C mutant; [8]) [%] | inhibition at 20 µM (KRas Q61H mutant; [9]) [%] | inhibition at 20 µM (KRas Q61H mutant; [10]) [%] | inhibition at 20 µM (KRas G12D mutant; [11]) [%] | inhibition at 20 µM (KRas G12D mutant; [12]) [%] | IC50 (KRas Q61H mutant; with SOS) [µM] | Compound
1 to 25 | 0 | 1 to 25 | 0 | 0 | 1 to 25 | 1 to 25 | 1 to 25 | 1 to 25 | 1 to 25 | 0 | 0 | > 10 | CO[C@H]1CC[C@@H](Nc2nc(-c3nccn3C)nc3sc(-c4cc[nH]n4)c(-c4ccccc4)c23)C1 (racemic) [Example 1, Rac-N-((1R,3S)-3-methoxycyclopentyl)-2-(1-methyl-1H-imidazol-2-yl)-5-phenyl-6-(1H-pyrazol-3-yl)thieno[2,3-d]pyrimidin-4-amine]
26 to 50 | 26 to 50 | 76 to 100 | 51 to 75 | 51 to 75 | 51 to 75 | 76 to 100 | 51 to 75 | 76 to 100 | 26 to 50 | 51 to 75 | 1 to 25 | 1 to 4.99 | CO[C@H]1CC[C@@H](Nc2nc(-c3nccn3C)nc3sc(-c4ccn(C(C)C)n4)c(-c4ccccc4)c23)C1 [Compound 5, 6-(1-Isopropyl-1H-pyrazol-3-yl)-N-((1R,3S)-3-methoxycyclopentyl)-2-(1-methyl-1H-imidazol-2-yl)-5-phenylthieno[2,3-d]pyrimidin-4-amine]
76 to 100 | 76 to 100 | 76 to 100 | 76 to 100 | 76 to 100 | 76 to 100 | 76 to 100 | 76 to 100 | 76 to 100 | 76 to 100 | 76 to 100 | 51 to 75 | 1 to 4.99 | COCCn1ccnc1-c1nc(N[C@H]2C[C@@H](OC)C2)c2c(-c3ccccc3)c(-c3ccn(C)n3)sc2n1 [Compound 7, N-((1s,3s)-3-Methoxycyclobutyl)-2-(1-(2-methoxyethyl)-1H-imidazol-2-yl)-6-(1-methyl-1H-pyrazol-3-yl)-5-phenylthieno[2,3-d]pyrimidin-4-amine]
76 to 100 | 76 to 100 | 76 to 100 | 76 to 100 | 76 to 100 | 76 to 100 | 76 to 100 | 76 to 100 | 76 to 100 | 76 to 100 | 76 to 100 | 51 to 75 | 5 to 10 | COCCn1ccnc1-c1nc(N[C@H]2C[C@@H](OC)C2)c2ccsc2n1 [Compound 9, N-((1s,3s)-3-Methoxycyclobutyl)-2-(1-(2-methoxyethyl)-1H-imidazol-2-yl)thieno[2,3-d]pyrimidin-4-amine]

The next lines start with the compound.

Compound | inhibition at 20 µM (Rac-1; [1]) [%] | inhibition at 20 µM (Rac-1; [2]) [%] | inhibition at 20 µM (KRas wild type; [3]) [%] | inhibition at 20 µM (KRas wild type; [4]) [%] | inhibition at 20 µM (Rho-A; [5]) [%] | inhibition at 20 µM (Rho-A; [6]) [%] | inhibition at 20 µM (KRas G12C mutant; [7]) [%] | inhibition at 20 µM (KRas G12C mutant; [8]) [%] | inhibition at 20 µM (KRas Q61H mutant; [9]) [%] | inhibition at 20 µM (KRas Q61H mutant; [10]) [%] | inhibition at 20 µM (KRas G12D mutant; [11]) [%] | inhibition at 20 µM (KRas G12D mutant; [12]) [%] | IC50 (KRas Q61H mutant; with SOS) [µM]
COC1CCCN(c2nc(-c3ccccn3)nc3sc(-c4ccn(C(C)C)n4)c(C)c23)C1 (racemic) [Compound 70, Rac-6-(1-Isopropyl-1H-pyrazol-3-yl)-4-(3-methoxypiperidin-1-yl)-5-methyl-2-(pyridin-2-yl)thieno[2,3-d]pyrimidine] | 26 to 50 | 26 to 50 | 26 to 50 | 26 to 50 | 51 to 75 | 51 to 75 | 26 to 50 | 51 to 75 | 26 to 50 | 26 to 50 | 26 to 50 | 26 to 50 | 
COCC1CCN(c2nc(-c3ccccn3)nc3sc(-c4ccn(C(C)C)n4)c(C)c23)C1 (racemic) [Compound 71, Rac-6-(1-Isopropyl-1H-pyrazol-3-yl)-4-(3-(methoxymethyl)pyrrolidin-1-yl)-5-methyl-2-(pyridin-2-yl)thieno[2,3-d]pyrimidine] |  | 0 | 26 to 50 | 26 to 50 |  | 76 to 100 | 26 to 50 | 26 to 50 | 51 to 75 | 26 to 50 | 1 to 25 | 0 | 
COCC1CCN(c2nc(-c3nccn3C)nc3sc(-c4ccn(C(C)C)n4)c(-c4ccccc4)c23)C1 (racemic) [Compound 76, Rac-6-(1-isopropyl-1H-pyrazol-3-yl)-4-(3-(methoxymethyl)pyrrolidin-1-yl)-2-(1-methyl-1H-imidazol-2-yl)-5-phenylthieno[2,3-d]pyrimidine] |  | 1 to 25 | 51 to 75 | 51 to 75 |  | 26 to 50 | 0 | 1 to 25 | 51 to 75 | 26 to 50 | 26 to 50 | 51 to 75 | 
COC1CCCN(c2nc(-c3nccn3C)nc3sc(-c4ccn(C(C)C)n4)c(-c4ccccc4)c23)C1 (racemic) [Compound 77, Rac-6-(1-isopropyl-1H-pyrazol-3-yl)-4-(3-methoxypiperidin-1-yl)-2-(1-methyl-1H-imidazol-2-yl)-5-phenylthieno[2,3-d]pyrimidine] |  | 1 to 25 | 26 to 50 | 26 to 50 |  | 26 to 50 | 0 | 26 to 50 | 26 to 50 | 1 to 25 | 26 to 50 | 51 to 75 | 
NC(=O)c1nc(O)c2scc(-c3ccccn3)c2n1 [Compound 18, 4-Hydroxy-7-(pyridin-2-yl)thieno[3,2-d]pyrimidine-2-carboxamide] | 26 to 50 | 26 to 50 | 1 to 25 | 26 to 50 | 26 to 50 | 26 to 50 | 26 to 50 | 26 to 50 | 26 to 50 | 26 to 50 | 26 to 50 | 51 to 75 | > 10
O=C(c1nc(O)c2scc(-c3ccccn3)c2n1)N1CCCC1 [Compound 19, (4-Hydroxy-7-(pyridin-2-yl)thieno[3,2-d]pyrimidin-2-yl)(pyrrolidin-1-yl)methanone] | 1 to 25 | 1 to 25 | 1 to 25 | 1 to 25 | 26 to 50 | 26 to 50 | 1 to 25 | 1 to 25 | 1 to 25 | 1 to 25 | 1 to 25 | 26 to 50 | > 10
CC(C)NC(=O)c1nc(O)c2scc(-c3ccccn3)c2n1 [Compound 20, 4-Hydroxy-N-isopropyl-7-(pyridin-2-yl)thieno[3,2-d]pyrimidine-2-carboxamide] | 26 to 50 | 26 to 50 | 1 to 25 | 51 to 75 | 26 to 50 | 26 to 50 | 26 to 50 | 51 to 75 | 26 to 50 | 26 to 50 | 26 to 50 | 26 to 50 | > 10
